# In US20090149551A1 (priority 2007, published 2009):
# Where two headings read alike, the source gives them in different places.
# What was measured:
# [1] = molecular target: T1, recombinant human P450 3A4 (Homo sapiens, UniProt P08684); assay: Vivid P450 3A4 activity assay with NADPH regenerating system; format: biochemical; conditions: for decrease of P450 3A4 activity: 2 μM DBOMF
# T1 construct: purchased Invitrogen (Carlsbad, Calif.)
# Description: (§1) The Vivid® P450 3A4 activity assay was carried out according to the manufacturer's protocol. Briefly, water (30 μL) and solutions of HCT (10 μL) were added to wells of a 96-well black plate. Master pre-mix solutions (50 μL) containing recombinant human P450 3A4 and rabbit NADPH P450 reductase were then added, and the resulting solutions were equilibrated at room temperature for 20 min. Finally, 10 μL of mixed NADP^+ and DBOMF substrate solutions were added, and the fluorescence intensity over time was recorded with a fluorometer at the excitation and emission wavelengths of 485 and 535 nm, respectively. The final concentrations were 100 mM phosphate buffer (pH 8.0), 3.3 mM glucose-6-phosphate, 0.3 unit/mL glucose-6-phosphate dehydrogenase, 1.0 mM NADP^+, 2 μM DBOMF and 5 nM P450 3A4 with 0.1% DMSO. Control experiments included no DBOMF as the background and 1 μM ketoconazole as the positive control. The rates of the P450 activity were obtained from the slope of the change of the fluorescent intensity over the initial 8 min.
# (§2) Enzyme and Cellular Studies with OHCT. The inhibitory effect of OHCT on P450 3A4 and the metabolic conversion of AFB1 with liver microsomes were studied similarly as described for HCT. […] The P450 activity was carried out similarly as described above with concentrations of DBOMF at 0.50, 0.67, 1.0, and 2.0 μM, respectively. The rates of the P450 activity were obtained as the slope of the change of the fluorescent intensity over the initial 4 min. The inhibitory constants of OHCT were obtained from the global best fit of the mixed inhibition model by GraphPad Prism (version 4.00, GraphPad Software, San Diego, Calif.).
# [2] = Stability in solution by HPLC analysis; format: physicochemical
# Description: 4b,5,6,7,8,8a-cis-Hexahydro-2-hydroxy-4b,8,8a-trimethylphenanthren-9,10-dione (OHCT). Spontaneous oxidation of HCT to OHCT was carried out in 100 mM phosphate buffer (pH 7.4) and 1.0 mM HCT in 10% acetonitrile. […]
# [3] = system: pooled human liver microsomes
# human HepG2 cells [4] = conditions: HepG2, co-treatment with AFB1; Zhou et al. 2006; cited from earlier work
# P450 1A/1B = conditions: HepG2, co-treatment with TCDD; cited from earlier work
# human HepG2 cells [5] = format: cell-based; conditions: for chemoprotection against AFB1 induced cytotoxicity: 2 μM AFB1, HepG2
# Description: The cell viability MTT assay on human HepG2 cells was carried out as previously reported. Briefly, HepG2 cells were seeded at 30,000 cells/well on a 96 well plate for 4 h before the treatment with AFB1 and OHCT or ketoconazole. After incubation for 72 h, the MTT assay was performed, followed by obtaining the absorbance of each well at 570 nm with a plate reader (μQuant, BioTek Instruments, Vt.). The statistical analyses (one-way ANOVA with Dunnett's test) were performed by GraphPad Prism.
# P. falciparum clone Dd2 = format: cell-based, Plasmodium falciparum
# Description: Cultures of Plasmodium falciparum.
# In vitro antiplasmodial activity: All solutions of chloroquine diphosphate, artemisinin (Sigma Aldrich), and OHCT were prepared in media RPMI 1640, ethanol and 0.1% DMSO, respectively. […] Parasite growth was estimated by microscopic observation of Giemsa-stained blood smears. All results presented are the means of at least three independent experiments.
# OHCT action on specific parasite life cycle stages: P. falciparum cultures were synchronized with 5% sorbitol and the Percoll-Sorbitol methods. Dilutions of OHCT, chloroquine, and artemisinin were prepared. To determine the in vitro efficacies of the three antimalarial drugs in culture, serial dilutions were prepared: for artemisinin, chloroquine and OHCT at 2, 4, 8, 16, 32 and 40 μM, respectively. After synchronization, the parasites were plated at the ring stage in 96-well plates. Each plate corresponded to one of the successive 6-h periods of the P. falciparum life cycle.
# [6] = Toxicity in mice receiving OHCT; conditions: administration over four days, observed three months after administration
# [7] = system: human liver or lung cells; assay: Toxicity to human liver or lung cells in culture
# CYP3A4 (P450 3A4) = molecular target: T2, CYP3A4 (P450 3A4) (Homo sapiens, UniProt P08684); assay: Vivid P450 3A4 activity assay with NADPH regenerating system; format: biochemical; conditions: human, recombinant human P450 3A4 with rabbit NADPH P450 reductase, pH 8, probe DBOMF 2 μM; 1 μM, 2 μM DBOMF; read-out: inhibition of the enzyme activity (P450 3A4)
# T2 construct: purchased Invitrogen (Carlsbad, Calif.)
# Description: as §1, §2
# [8] = 40 μM, 50 μM AFB1, NADPH regenerating system, 37° C. 90 min
# [9] = mixed inhibition model, global best fit, substrate DBOMF
# T1 sequence (P08684 whole entry): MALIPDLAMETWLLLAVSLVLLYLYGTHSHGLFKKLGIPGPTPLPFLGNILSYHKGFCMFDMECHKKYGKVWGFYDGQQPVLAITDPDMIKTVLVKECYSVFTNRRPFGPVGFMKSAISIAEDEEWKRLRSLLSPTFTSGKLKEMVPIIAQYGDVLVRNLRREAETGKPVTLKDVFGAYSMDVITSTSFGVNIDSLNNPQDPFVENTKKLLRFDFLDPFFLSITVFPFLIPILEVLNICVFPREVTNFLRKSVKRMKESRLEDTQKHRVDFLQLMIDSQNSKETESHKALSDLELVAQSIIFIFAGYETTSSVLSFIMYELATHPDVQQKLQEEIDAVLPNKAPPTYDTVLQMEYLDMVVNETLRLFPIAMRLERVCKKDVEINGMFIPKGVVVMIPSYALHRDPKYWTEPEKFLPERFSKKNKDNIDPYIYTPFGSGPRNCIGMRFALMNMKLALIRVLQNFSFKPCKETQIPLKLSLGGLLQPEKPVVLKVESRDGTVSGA
# T2 sequence (P08684 whole entry): as above
molecule,measurement,setting,value
2-hydroxy-cis-terpenone [HCT],decrease of P450 3A4 activity,[1]; 10 μM,~30%
same,decrease of P450 3A4 activity,[1]; 20 μM,~50%
same,decrease of P450 3A4 activity,[1]; 40 μM,~70%
same,IC50,"[1]; purified P450 3A4, read-out: IC50, inhibition of purified P450 3A4 enzyme activity",20 µM
same,stability in the phosphate buffer and in the AFB1 metabolic study,"[2]; 100 mM phosphate buffer pH 7.4, 37° C.",slow degradation
same,stability of stock solutions,"[2]; acetonitrile, −15° C., several weeks",no significant degradation
same,inhibition of the metabolic conversion of AFB1 in liver microsomes,[3]; [8],effective inhibition
same,inhibition of the α-NF stimulated production of exo-AFB1-epoxide,"[3]; 40 μM, with 50 μM α-NF",consistently inhibited
same,inhibition of the carcinogenic conversion of AFB1 with liver microsomes,"[3]; 10, 20, 40 μM",inhibited by HCT in a concentration dependent manner
same,effect of co-treatment on AFB1 induced cytotoxicity including DNA damage and cell death,human HepG2 cells [4],reduced AFB1 induced cytotoxicity
same,effect on TCDD induced P450-1 activity,P450 1A/1B,inhibited
"CC1CCCC2(C)c3ccc(O)cc3C(=O)C(=O)C12C (stereo not drawn) [OHCT, 4b,5,6,7,8,8a-cis-Hexahydro-2-hydroxy-4b,8,8a-trimethylphenanthren-9,10-dione]",decrease of P450 3A4 activity,[1]; 20 μM,50%
same,Ki (disassociation constant of enzyme inhibitor complex),[1]; [9],17.6 ± 5.6 µM
same,Ki′ (disassociation constant of enzyme-substrate inhibitor complex),[1]; [9],7.6 ± 1.5 µM
same,cytotoxicity of the compound alone,"human HepG2 cells [5]; 60 μM alone, HepG2",no cytotoxicity
same,cell viability on co-treatment with AFB1,"human HepG2 cells [5]; 60 μM, 2 μM AFB1, HepG2, 72 h, MTT",more than 90%
same,chemoprotection against AFB1 induced cytotoxicity,human HepG2 cells [5]; 40 and 60 μM,effective chemoprotection
same,activity against the gametocyte forms of the parasite,P. falciparum clone Dd2; 2 μM,active
same,decrease of parasitemia,"P. falciparum clone Dd2; 16 μM, 8 h, clone Dd2",50%
same,killing of chloroquine resistant clone Dd2,"P. falciparum clone Dd2; 24 hr following treatment, concentration dependent",killed
same,"inhibition of early ring, trophozoite and schizont stages","P. falciparum clone Dd2; clone Dd2, 24 hr",equally inhibited
same,stability under aqueous conditions,"[2]; 72 h at 37° C., HPLC",no degradation
same,inhibition of the metabolic conversion of AFB1 in liver microsomes,[3]; [8],inhibition of both GSH-AFB1 adducts and aflatoxin Q1
same,stability under aqueous conditions and in the metabolic study of liver microsomes,"[3]; liver microsomes, HPLC",no degradation
same,signs of toxicity in mice,[6],no signs of toxicity
same,toxicity to human liver or lung cells in culture,[7],no toxicity
"CC(C)CCC[C@@H](C)[C@H]1CC[C@H]2[C@@H]3CC=C4C[C@@H](O)CC[C@]4(C)[C@H]3CC[C@]12C [cholesterol, reference compound]",inhibitory effect on the metabolic conversion of AFB1 in liver microsomes,[3]; up to 100 μM,no inhibitory effect
"CC(=O)N1CCN(c2ccc(OCC3COC(Cn4ccnc4)(c4ccc(Cl)cc4Cl)O3)cc2)CC1 (stereo not shown) [ketoconazole, reference compound]","inhibition at 8 min, 1 μM",CYP3A4 (P450 3A4),> 90%
same,"cell mortality, compound alone","human HepG2 cells [5]; 20 μM alone, HepG2",20%
same,chemoprotection against AFB1 induced cytotoxicity,human HepG2 cells [5]; 10 and 20 μM,observed
same,inhibition of the α-NF stimulated production of exo-AFB1-epoxide,[3],consistently inhibited
same,inhibition of the metabolism of AFB1 in liver microsomes,"[3]; 1 μM, 50 μM AFB1, NADPH regenerating system, 37° C. 90 min",same extent as 40 μM HCT
"O=c1cc(-c2ccccc2)oc2c1ccc1ccccc12 [α-NF, α-naphthoflavone, reference compound]",decrease of aflatoxin Q1 versus no α-NF,[3]; 50 μM,6 fold
same,increase of the amount of GSH-AFB1 adducts versus no α-NF,[3]; 50 μM,2.3 folds
